# Laboratory results taken from US20160050895A1, “TRANSGENIC NON-HUMAN ORGANISMS WITH NON-FUNCTIONAL TSPO GENES” (AUSTRALIAN NUCLEAR SCIENCE AND TECHNOLOGY ORGANIZATION, priority 2013, published 2016).
# Test system: TSPO
# Assay: Radioligand membrane saturation binding with 3H-PK11195
# Parameters: species or system mouse
# Settings: testicular and kidney tissue; TSPO-/- mice compared to TSPO+/+ mice
# Protocol: Tissue samples were homogenised with T25 digital Ultra-Turrax homogenizer (Ika, Wilmington, N.C., USA) at speed setting 5 or 20000 rpm in approximately 45 mL of ice-cold TRIS buffer (pH 7.4), collected by centrifugation at 48000 g and the supernatant was then discarded. The procedure was then immediately repeated, this acts as an extra wash step to remove any soluble interfering substances to radioligand binding (Byland et al. 1993). Following the second centrifugation and removal ofsupernatant the samples were resuspended in approximately 50 volumes of ice-cold TRIS buffer (pH 7.4). Samples were aliquoted stored in −80° C. until required.
# For TSPO knock-out mice studies, radioligand binding was performed using 3H-PK11195 racemate across a range of concentrations (FIG. 4). PK11195 is a TSPO specific probe. Total and non-specific binding was determined through 8 concentrations of 3H-PK11195 ranging from 0.56 nM to 20 nM. Non-specific binding was determined by the addition of 5 μM PK11195 to all concentrations of 3H-PK11195. […]
# Organs were homogenised, washed twice in ice-cold 50 mM Tris-HCl (pH 7.4) by centrifugation at 48000×g, resuspended in 50 volumes of ice-cold 50 mM Tris-HCl, and protein concentration was determined using a BCA protein assay kit (Thermo Fisher Scientific). […] Non-specific binding was determined with 5 μM PK11195. […]
structure (smiles),measurement,value
CC[C@@H](C)N(C)C(=O)c1cc2ccccc2c(-c2ccccc2Cl)n1 [[^3H]PK11195],Specific binding using [3H]PK11195,close to zero signal
